“Also recorded” adds a separate entry of the source.
Tests used:
primary CD34+ AML cells = experiment: CCK-8 cell viability assay on primary CD34+ AML cells; assay type: cell-based, human; conditions: 48 h, CCK-8
Protocol: (§1) The mononuclear cells were further enriched for CD34 positive cells using the MACS CD34 MicroBead kit following the manufacturer's protocol. Enriched CD34 cell-purity was measured by flow cytometry-based quantification of cells stained using an anti-CD34-FITC antigen. Isolated CD34^+ cells were pre-incubated in the IMDM-based serum-free media for 1 h before the addition of drugs. PepE was dissolved in DMSO to make a 100 mM stock solution and stored in aliquots at – 20 °C. The 100 mM stock solution was diluted with DMSO to 10 mM and then diluted with PBS to 1 mM before treating the cells at the indicated concentrations. DMAPE and Ara-C were diluted in PBS to 1 mM concentration before use.
(§2) Unless otherwise mentioned, 2 × 10^4 cells were seeded at 96-well plates (Corning, New York, USA) in the IMDM-based serum-free media for 1 h. Then, the cells were incubated with different concentrations of PepE and DMAPE at 37 °C in a 5% CO2 incubator for 48 h. At the end of the treatment, 10 μL CCK-8 solution was added to each well and incubated for an additional 2 h at 37 °C, and the absorbance at 450 nm was measured with a microplate reader (Thermo Scientific, Multiskan GO, Finland). Inhibition ratio (%) was calculated as [(absorbance of control − absorbance of the test sample)/absorbance of control] x 100%.

[1] = system: CD34+ NBM cells and hBMSCs; experiment: CCK-8 cell viability assay on normal CD34+ NBM cells and hBMSCs; assay type: cell-based, human; conditions: 48 h, CCK-8
Protocol: as §1, §2

KG-1a CD34+ cells = experiment: KG-1a-Luc CD34+ xenograft in NOD/SCID mice, bioluminescence; assay type: in vivo; conditions: 50 mg/kg i.g. daily, 5 weeks
Protocol: Six-week-old female NOD-SCID mice (obtained from the model animal research center of Nanjing University, Nanjing, China) were acclimated for 1 week and housed in groups of five. All animal studies were conducted under the guidelines approved by the Animal Care and Use Committee of the Nanjing University of Chinese Medicine (Nanjing, China). The mice were sublethally irradiated with 2.7 Gy before transplantation.
KG-1a cells tagged with a luciferase reporter gene (KG-1a-Luc) were obtained from Cobioer biotechnology Inc. (Nanjing, Jiangsu, China) and cultured in 90% IMDM supplemented with 10% FBS, 0.05 mM 2-Mercaptoethanol, and 1 μg/mL Puromycin, and grown at 37 °C in a 5% CO2 humidified incubator. CD34 positive cells were enriched (following the 2.3 method) and injected via the tail vein in a final volume of 0.2 mL PBS with 0.5% FBS. For analyzing the luciferase signal, 5 × 10^6 cells KG-1a-Luc cells were used for each recipient animal. Seven days after transplantation, mice with KG-1a-Luc implants were subjected to bioluminescent analysis based on the luciferase signal. Briefly, mice received D-luciferin phosphate solution (100 mg/kg) intravenously 10 min prior to imaging. They were then anesthetized with isoflurane inhalation and imaged using a Xenogen IVIS scanner (PerkinElmer, Waltham, MA, USA). The next day, mice showing successful implantations were randomly divided into the control, DMAPE low dose, DMAPE high dose, and Ara-C treatment groups (n = 5 in each group), which received daily i. g. saline buffer, DMAPE phosphate salt 25 mg/kg, DMAPE phosphate salt 50 mg/kg and Ara-C (50 mg/kg), respectively. The growth of KG-1a-Luc cells was monitored every week by their luciferase signal. Five weeks after the implantation, all mice were sacrificed and their livers, kidneys, and bone marrow were excised for ex vivo bioluminescent imaging. The bioluminescent signal intensity was all quantified using the Living Image software (version 4.2, Carliper Life Science, Inc., Hopkinton, MA, USA) and is presented as photons/second/cm^2/sr (sr denotes steradian).

Sec residue in TrxR1 = biological target: T1, Sec residue in TrxR1 (Homo sapiens, UniProt Q16881); experiment: BIAM labeling assay; assay type: biochemical; conditions: pH 6.5; PepE 1, 5, 10 μM; DNCB 5 μM
T1 construct: purchased Abcam ab204206
T1 sequence (Q16881 1-499 isoform Q16881-5): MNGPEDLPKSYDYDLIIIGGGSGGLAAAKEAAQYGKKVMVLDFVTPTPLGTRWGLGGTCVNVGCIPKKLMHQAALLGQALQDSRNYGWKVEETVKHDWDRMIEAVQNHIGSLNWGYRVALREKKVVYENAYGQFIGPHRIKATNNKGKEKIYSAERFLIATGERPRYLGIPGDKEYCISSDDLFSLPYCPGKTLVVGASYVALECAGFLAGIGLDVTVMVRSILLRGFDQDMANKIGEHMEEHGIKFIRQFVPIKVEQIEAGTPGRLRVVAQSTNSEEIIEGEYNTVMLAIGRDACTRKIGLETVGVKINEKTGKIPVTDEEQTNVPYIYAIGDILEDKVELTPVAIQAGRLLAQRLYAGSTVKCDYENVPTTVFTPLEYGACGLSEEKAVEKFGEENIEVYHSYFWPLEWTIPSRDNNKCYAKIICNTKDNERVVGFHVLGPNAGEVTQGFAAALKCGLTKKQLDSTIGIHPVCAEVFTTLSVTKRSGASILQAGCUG
Protocol: To further assess whether the Sec residue in TrxR1 was the modified site of PepE. The BIAM labeling assay was performed according to previous report. Briefly, 100 μM BIAM stock solution in 100 mM Tris-HCl, 1 mM EDTA buffer (pH = 6.5) was freshly prepared before each test. The TrxR1 protein (1 μM) was incubated with different concentrations (1, 5, 10 μM) of PepE or 5 μM of DNCB (positive control) and DMSO (negative control) in 50 mM Tris-HCl, 1 mM EDTA buffer (pH = 7.5) and 400 μM NADPH at 37 °C. After incubation, 4 μL of the reaction mixture was withdrawn and added mixed with 20 μM of BIAM solution in 100 mM Tris-HCl, 1 mM EDTA assay buffer (pH = 6.5) for 30 min at 37 °C to allow selective alkylation of free Sec residues. The reaction was stopped by adding the IAA solution (final concentration 50 mM). The samples were then denatured in SDS buffer, boiled and subjected to SDS-PAGE and western-blotting on a 7.5% gel, and the separated proteins were transferred to nitrocellulose membrane. The enzymes labeled with BIAM were detected with HRP-conjugated streptavidin and enhanced chemiluminescence detection. The bands were analyzed using Gel-pro 32 software.

NADPH-reduced TrxR1 = biological target: T2, NADPH-reduced TrxR1 (Homo sapiens, UniProt Q16881); experiment: Bio-layer interferometry (BLI) binding assay, TrxR1; conditions: NADPH-reduced TrxR1 0.9 μM, 25 °C
T2 construct: purchased Abcam ab204206
T2 sequence (Q16881 1-499 isoform Q16881-5): T1 sequence (Q16881 1-499 isoform Q16881-5)
Protocol: The binding kinetics of PepE or PepA to purified recombinant proteins were determined using BLI on an Octet RED 96 system (ForteBio, Shanghai, China) following the manufacturer's protocol. All interaction analyses were performed at 25 °C in PBS with 0.2% DMSO. Purified recombinant proteins (0.9 μM, the TrxR1 full length and TrxR1 protein fragment were pre-reduced by 400 μM of NADPH before test) were pre-labeled with biotin using […] (Abcam) following the manufacturer's instruction. Loading of the Dip and Read Super Streptavidin (SSA) Biosensors (ForteBio) were conducted by exposing biotinylated proteins to biosensor tips for 2 h. The 96-well microplates used in the Octet were filled with 200 μL sample or buffer per well and agitated at 1000 rpm. The loaded biosensors were washed in buffer for 600 s and transferred to wells containing PepE at concentrations of 0.625, 1.25, 2.5, 5, and 10 μM or PepA at concentrations of 1.25, 2.5, 5, 10 and 20 μM, respectively, in the buffer. […] Reference measurements were conducted using the buffer instead of PepE (or PepA). A parallel set of SA unloaded biosensors was prepared to act as a control. The sample-sensorgrams were corrected by subtracting the double reference curve. Kinetic parameters (Kon and Kdis) and affinity (KD) were determined from a global fit to a 1:1 binding model of the data between proteins and PepE using Octet software (ForteBio).

TrxR1 = conditions: read-out: TrxR1 inhibition IC50; cited from earlier work

In the case of `Nc1ccn([C@@H]2O[C@H](CO)[C@@H](O)[C@@H]2O)c(=O)n1` [Ara-C, Cytarabine, reference compound], the “toxicity against AML progenitor cells” value (primary CD34+ AML cells) is reported as “no apparent toxicity”, the “toxicity on NBM and hBMSC cells in side-by-side comparison” value [1] is reported as “more toxic than PepE and DMAPE” and the “in vivo efficacy against KG-1a CD34+ cells” value (KG-1a CD34+ cells) is reported as “not obvious; also recorded: not significant”.
With `O=[N+]([O-])c1ccc(Cl)c([N+](=O)[O-])c1` [DNCB, 1-chloro-2,4-dinitrobenzene, reference compound] the “BIAM alkylation of Sec residue of TrxR1” value (Sec residue in TrxR1) was “significantly block”.
`COc1cc(C(c2cc(OC)c3c(c2)OCO3)[C@@H]2COC(=O)[C@H]2C)cc2c1OCO2` [PepA, Peperomin A, reference compound] showed a Kd (NADPH-reduced TrxR1) of 111 µM.
In the case of `C=C1C(=O)O[C@H]2[C@H]1CC/C(C)=C/CC[C@@]1(C)O[C@@H]21` [parthenolide, Parthenolide], the IC50 (TrxR1) is listed as roughly 3 µM.
For `CC(C)=CC[C@@H](O)C1=CC(=O)c2c(O)ccc(O)c2C1=O` [shikonin], the IC50 (TrxR1) is given as roughly 1.6 µM.

From article PMC6434189, “Peperomin E and its orally bioavailable analog induce oxidative stress-mediated apoptosis of acute myeloid leukemia progenitor cells by targeting thioredoxin reductase” (Redox Biology, 2019)
